Laboratory results: ChEMBL document CHEMBL4033701, “Cytotoxic triterpene diglycosides from the sea cucumber Stichopus horrens” (Bioorg Med Chem Lett, 2017)
pIC50: −log10 of the molar value.

What was measured:
Format in all cases: functional, cell-based
SK-MEL-2 = assay: Cytotoxicity against human SK-MEL-2 cells after 72 hrs by SRB assay; settings: SK-MEL-2, 72 h
HepG2 = assay: Cytotoxicity against human HepG2 cells after 72 hrs by SRB assay; settings: HepG2, 72 h
MCF7 = assay: Cytotoxicity against human MCF7 cells after 72 hrs by SRB assay; settings: MCF7, 72 h
KB = assay: Cytotoxicity against human KB cells after 72 hrs by SRB assay
LNCaP = assay: Cytotoxicity against human LNCAP cells after 72 hrs by SRB assay

Row | Structure (SMILES) | pIC50 (SK-MEL-2) | pIC50 (HepG2) | pIC50 (MCF7) | pIC50 (KB) | pIC50 (LNCaP)
1 | C=C(C)C[C@@H](C[C@]1(C)OC(=O)[C@]23CC[C@H]4C(=CC[C@H]5C(C)(C)[C@@H](O[C@@H]6OC[C@@H](O)[C@H](O)[C@H]6O[C@@H]6O[C@H](CO)[C@@H](O)[C@H](O)[C@H]6O)CC[C@]45C)[C@]2(C)CC[C@@H]31)OC(C)=O | 4.97 | 5.15 | 5.14 | 4.96 | 5.00
2 | CC(=O)O[C@@H](CC(C)C)C[C@]1(C)OC(=O)[C@]23CC[C@H]4C(=CC[C@H]5C(C)(C)[C@@H](O[C@@H]6OC[C@@H](O)[C@H](O)[C@H]6O[C@@H]6O[C@H](CO)[C@@H](O)[C@H](O)[C@H]6O)CC[C@]45C)[C@]2(C)CC[C@@H]31 | 5.24 | 5.28 | 5.20 | 5.05 | 5.12
3 | CC(C)C[C@H](O)C[C@]1(C)OC(=O)[C@]23CC[C@H]4C(=CC[C@H]5C(C)(C)[C@@H](O[C@@H]6OC[C@@H](O)[C@H](O)[C@H]6O[C@@H]6OC[C@@H](O)[C@H](O)[C@H]6O)CC[C@]45C)[C@]2(C)CC[C@@H]31 | 4.38 | 4.27 | 4.28 | 4.31 | 4.23
4 | Cc1c2ccncc2c(C)c2c1[nH]c1ccccc12 [ELLIPTECINE] | 5.72 | – | – | 5.75 | 5.71
5 | C=C(C)C[C@@H](C[C@]1(C)OC(=O)[C@]23CC[C@H]4C(=CC[C@H]5C(C)(C)[C@@H](O[C@@H]6OC[C@@H](O)[C@H](O)[C@H]6O[C@@H]6OC[C@@H](O)[C@H](O)[C@H]6O)CC[C@]45C)[C@]2(C)CC[C@@H]31)OC(C)=O | 5.64 | 5.72 | 5.68 | 5.63 | 5.50
6 | CC(=O)O[C@@H](CC(C)C)C[C@]1(C)OC(=O)[C@]23CC[C@H]4C(=CC[C@H]5C(C)(C)[C@@H](O[C@@H]6OC[C@@H](O)[C@H](O)[C@H]6O[C@@H]6OC[C@@H](O)[C@H](O)[C@H]6O)CC[C@]45C)[C@]2(C)CC[C@@H]31 | 5.66 | 5.69 | 5.68 | 5.51 | 5.57
7 | CC(=O)O[C@@H](CC(C)C)C[C@]1(C)OC(=O)[C@]23CC[C@H]4C(=CC[C@H]5C(C)(C)[C@@H](O[C@@H]6OC[C@@H](O)[C@H](O)[C@H]6O[C@@H]6O[C@H](C)[C@@H](O)[C@H](O)[C@H]6O)CC[C@]45C)[C@]2(C)CC[C@@H]31 | 5.57 | 5.53 | 5.67 | 5.55 | 5.52
8 | C=C(C)CCC(O)[C@]1(C)OC(=O)[C@]23CC[C@H]4C(=CC[C@H]5C(C)(C)[C@@H](O[C@@H]6OC[C@@H](O)[C@H](O)[C@H]6O[C@@H]6O[C@H](CO)[C@@H](OS(=O)(=O)O)[C@H](O)[C@H]6O)CC[C@]45C)[C@]2(C)CC[C@H]13 (stereo partly drawn) | 4.17 | 4.26 | 4.23 | 4.34 | 4.29
9 | C=C(C)CCC(O)[C@]1(C)OC(=O)[C@]23CC[C@H]4C(=CC[C@H]5C(C)(C)[C@@H](O[C@@H]6OC[C@@H](O)[C@H](O)[C@H]6O[C@@H]6O[C@H](CO)[C@@H](O)[C@H](O)[C@H]6O)CC[C@]45C)[C@]2(C)CC[C@H]13 (stereo partly drawn) | 4.36 | 4.42 | 4.38 | 4.48 | 4.29
